In patent US20250041429A1, “COMPOUND HAVING BTK PROTEIN DEGRADATION ACTIVITY, AND MEDICAL USES THEREOF” (UBIX THERAPEUTICS, INC., priority 2021, published 2025):

Biological target: T1, BTK protein (Homo sapiens, UniProt Q06187)
T1 construct: endogenous in cells; host or cells: TMD-8 cells
Experiment: Measurement of BTK protein degradation ability in TMD-8 cells (Western blotting)
Assay type: cell-based
Settings: harvested after 24 hours; for BTK degradation (%) 1 nM: compound 1 nM; for BTK degradation (%) 10 nM: compound 10 nM; for BTK degradation (%) 100 nM: compound 100 nM
How it was run: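 BTK levels were measured by immunoblotting of equal-protein RIPA lysates, normalized to GAPDH or β-actin, with chemiluminescent or infrared detection. Lysates came from TMD-8 cells exposed to compound for 24 h at final concentrations of 0.1, 1, 10 μM or 0.0001–0.1 μM, against a DMSO control.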

T1 sequence (Q06187 whole entry): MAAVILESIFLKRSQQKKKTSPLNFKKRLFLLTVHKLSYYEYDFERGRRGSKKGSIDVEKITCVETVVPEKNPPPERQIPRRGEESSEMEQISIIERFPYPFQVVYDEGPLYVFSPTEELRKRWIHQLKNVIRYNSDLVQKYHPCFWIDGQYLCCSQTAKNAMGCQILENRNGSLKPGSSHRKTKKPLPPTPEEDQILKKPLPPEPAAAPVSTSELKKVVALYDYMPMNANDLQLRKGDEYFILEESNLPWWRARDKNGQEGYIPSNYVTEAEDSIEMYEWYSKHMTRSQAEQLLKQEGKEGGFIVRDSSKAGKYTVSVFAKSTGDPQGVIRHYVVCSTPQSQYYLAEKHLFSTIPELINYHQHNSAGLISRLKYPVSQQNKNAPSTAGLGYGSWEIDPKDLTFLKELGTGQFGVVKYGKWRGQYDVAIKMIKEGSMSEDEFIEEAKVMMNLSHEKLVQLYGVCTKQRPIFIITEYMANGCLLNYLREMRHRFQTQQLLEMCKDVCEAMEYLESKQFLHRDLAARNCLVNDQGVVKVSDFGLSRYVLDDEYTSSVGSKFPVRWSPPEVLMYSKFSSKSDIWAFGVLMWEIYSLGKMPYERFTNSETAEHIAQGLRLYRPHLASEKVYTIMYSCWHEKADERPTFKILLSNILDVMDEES

Compound	BTK degradation (%) 1 nM [%]	BTK degradation (%) 10 nM [%]	BTK degradation (%) 100 nM [%]
Cc1cc(-c2ccnc(Nc3ccc(N4CCN(CC5CCN(c6cccc(NC7CCC(=O)NC7=O)c6)CC5)CC4)cc3)n2)ccc1CNC(=O)c1cn(C(C)(C)C)nn1 (stereo not drawn) [Example 61, 1-(tert-butyl)-N-(4-(2-((4-(4-((1-(3-((2,6-dioxopiperidin-3-yl)amino)phenyl)piperidin-4-yl)methyl)piperazin-1-yl)phenyl)amino)pyrimidin-4-yl)-2-methylbenzyl)-1H-1,2,3-triazole-4-carboxamide]	66.5	95.5	99.0
Cc1cc(-c2ccnc(Nc3ccc(N4CCN(CC5CCN(c6ccc(NC7CCC(=O)NC7=O)cn6)CC5)CC4)cc3)n2)ccc1CNC(=O)c1cn(C(C)(C)C)nn1 (stereo not drawn) [Example 62]	57.0	97.5	100.0
Cc1cc(-c2ccnc(Nc3ccc(CN4CCN(CC5CCN(c6cccc(OC7CCC(=O)NC7=O)c6)CC5)CC4)cc3)n2)ccc1CNC(=O)N1CC(OC(C)C)C1 (stereo not drawn) [Example 63, N-(4-(2-((4-((4-((1-(3-((2,6-dioxopiperidin-3-yl)oxy)phenyl)piperidin-4-yl)methyl)piperazin-1-yl)methyl)phenyl)amino)pyrimidin-4-yl)-2-methylbenzyl)-3-isopropoxyazetidine-1-carboxamide]	29.0	83.0	97.5
Cc1cc(-c2ccnc(Nc3ccc(CN4CCN(CC5CCN(c6cccc(NC7CCC(=O)NC7=O)c6)CC5)CC4)cc3)n2)ccc1CNC(=O)N1CC(OC(C)C)C1 (stereo not drawn) [Example 64, N-(4-(2-((4-((4-((1-(3-((2,6-dioxopiperidin-3-yl)amino)phenyl)piperidin-4-yl)methyl)piperazin-1-yl)methyl)phenyl)amino)pyrimidin-4-yl)-2-methylbenzyl)-3-isopropoxyazetidine-1-carboxamide]	43.0	92.5	98.5
Cc1cc(-c2ccnc(Nc3ccc(N4CCN(CC5CCN(c6cccc(N7CCC(=O)NC7=O)c6)CC5)CC4)cc3)n2)ccc1CNC(=O)N1CC(OC(C)C)C1 [Example 65, N-(4-(2-((4-(4-((1-(3-(2,4-dioxotetrahydropyrimidin-1 (2H)-yl)phenyl)piperidin-4-yl)methyl)piperazin-1-yl)phenyl)amino)pyrimidin-4-yl)-2-methylbenzyl)-3-isopropoxyazetidine-1-carboxamide]	32.5	92.0	99.0
Cc1cc(-c2ccnc(Nc3ccc(N4CCN(CC5CCN(c6ccc(N7CCC(=O)NC7=O)cc6)CC5)CC4)cc3)n2)ccc1CNC(=O)N1CC(OC(C)C)C1 [Example 66, N-(4-(2-((4-(4-((1-(4-(2,4-dioxotetrahydropyrimidin-1 (2H)-yl)phenyl)piperidin-4-yl)methyl)piperazin-1-yl)phenyl)amino)pyrimidin-4-yl)-2-methylbenzyl)-3-isopropoxyazetidine-1-carboxamide]	28.0	91.5	98.5
Cc1cc(-c2ccnc(Nc3ccc(CN4CCN(CC5CCN(c6cccc(N7CCC(=O)NC7=O)c6)CC5)CC4)cc3)n2)ccc1CNC(=O)N1CC(OC(C)C)C1 [Example 67, N-(4-(2-((4-((4-((1-(3-(2,4-dioxotetrahydropyrimidin-1 (2H)-yl)phenyl)piperidin-4-yl)methyl)piperazin-1-yl)methyl)phenyl)amino)pyrimidin-4-yl)-2-methylbenzyl)-3-isopropoxyazetidine-1-carboxamide]	13.5	77.0	98.0
Cc1cc(-c2ccnc(Nc3ccc(CN4CCN(CC5CCN(c6ccc(N7CCC(=O)NC7=O)cc6)CC5)CC4)cc3)n2)ccc1CNC(=O)N1CC(OC(C)C)C1 [Example 68, N-(4-(2-((4-((4-((1-(4-(2,4-dioxotetrahydropyrimidin-1 (2H)-yl)phenyl)piperidin-4-yl)methyl)piperazin-1-yl)methyl)phenyl)amino)pyrimidin-4-yl)-2-methylbenzyl)-3-isopropoxyazetidine-1-carboxamide]	22.5	88.0	99.0
Cc1cc(-c2ccnc(Nc3ccc(CN4CCN(CC5CCN(c6cccc(NC7CCC(=O)NC7=O)c6)CC5)CC4)cc3)n2)ccc1CNC(=O)c1cn(C(C)(C)C)nn1 (stereo not drawn) [Example 69, 1-(tert-butyl)-N-(4-(2-((4-((4-((1-(3-((2,6-dioxopiperidin-3-yl)amino)phenyl)piperidin-4-yl)methyl)piperazin-1-yl)methyl)phenyl)amino)pyrimidin-4-yl)-2-methylbenzyl)-1H-1,2,3-triazole-4-carboxamide]	61.5	95.0	99.5
Cc1cc(-c2ccnc(Nc3ccc(N4CCN(CC5CCN(c6cccc(N7CCC(=O)NC7=O)c6)CC5)CC4)cc3)n2)ccc1CNC(=O)c1cn(C(C)(C)C)nn1 [Example 70, 1-(tert-butyl)-N-(4-(2-((4-(4-((1-(3-(2,4-dioxotetrahydropyrimidin-1 (2H)-yl)phenyl)piperidin-4-yl)methyl)piperazin-1-yl)phenyl)amino)pyrimidin-4-yl)-2-methylbenzyl)-1H-1,2,3-triazole-4-carboxamide]	67.0	97.5	99.5
Cc1cc(-c2ccnc(Nc3ccc(N4CCN(CC5CCN(c6ccc(N7CCC(=O)NC7=O)cc6)CC5)CC4)cc3)n2)ccc1CNC(=O)c1cn(C(C)(C)C)nn1 [Example 71, 1-(tert-butyl)-N-(4-(2-((4-(4-((1-(4-(2,4-dioxotetrahydropyrimidin-1 (2H)-yl)phenyl)piperidin-4-yl)methyl)piperazin-1-yl)phenyl)amino)pyrimidin-4-yl)-2-methylbenzyl)-1H-1,2,3-triazole-4-carboxamide]	80.5	98.0	99.5
Cc1cc(-c2ccnc(Nc3ccc(N4CCN(CC5CCN(c6ccc(NC7CCC(=O)NC7=O)cc6F)CC5)CC4)cc3)n2)ccc1CNC(=O)c1cn(C(C)(C)C)nn1 (stereo not drawn) [Example 72, 1-(tert-butyl)-N-(4-(2-((4-(4-((1-(4-((2,6-dioxopiperidin-3-yl)amino)-2-fluorophenyl)piperidin-4-yl)methyl)piperazin-1-yl)phenyl)amino)pyrimidin-4-yl)-2-methylbenzyl)-1H-1,2,3-triazole-4-carboxamide]	62.5	95.5	99.0
Cc1cc(-c2ccnc(Nc3ccc(N4CCN(CC5CCN(c6ccc(N7CCC(=O)NC7=O)cc6F)CC5)CC4)cc3)n2)ccc1CNC(=O)c1cn(C(C)(C)C)nn1 [Example 73]	43.0	91.5	97.0
Cc1cc(-c2ccnc(Nc3ccc(CN4CCN(CC5CCN(c6cccc(N7CCC(=O)NC7=O)c6)CC5)CC4)cc3)n2)ccc1CNC(=O)c1cn(C(C)(C)C)nn1 [Example 74, 1-(tert-butyl)-N-(4-(2-((4-((4-((1-(3-(2,4-dioxotetrahydropyrimidin-1 (2H)-yl)phenyl)piperidin-4-yl)methyl)piperazin-1-yl)methyl)phenyl)amino)pyrimidin-4-yl)-2-methylbenzyl)-1H-1,2,3-triazole-4-carboxamide]	43.0	91.5	96.5
Cc1cc(-c2ccnc(Nc3ccc(CN4CCN(CC5CCN(c6ccc(N7CCC(=O)NC7=O)cc6)CC5)CC4)cc3)n2)ccc1CNC(=O)c1cn(C(C)(C)C)nn1 [Example 75, 1-(tert-butyl)-N-(4-(2-((4-((4-((1-(4-(2,4-dioxotetrahydropyrimidin-1 (2H)-yl)phenyl)piperidin-4-yl)methyl)piperazin-1-yl)methyl)phenyl)amino)pyrimidin-4-yl)-2-methylbenzyl)-1H-1,2,3-triazole-4-carboxamide]	14.0	87.0	98.0
Cc1cc(-c2ccnc(Nc3ccc(N4CCN(CC5CCN(c6cccc(N7CCC(=O)NC7=O)c6)CC5)CC4)nc3)n2)ccc1CNC(=O)c1cn(C(C)(C)C)nn1 [Example 76]	55.0	96.5	100.0
Cc1cc(-c2ccnc(Nc3ccc(N4CCN(CC5CCN(c6ccc(N7CCC(=O)NC7=O)cc6)CC5)CC4)nc3)n2)ccc1CNC(=O)c1cn(C(C)(C)C)nn1 [Example 77]	57.5	96.0	99.5
